The results in this text go back to ChEMBL document CHEMBL1157399, “Antioxidant 2-phenylbenzofurans and a coumestan from Lespedeza virgata” (J Nat Prod, 2008).

The nature of assay [1]: Antioxidant activity assessed as oxygen radical scavenging activity by ORAC-fluorescence assay. The class given is functional.
Assay [2] is described as follows: Antioxidant activity against 2,2'-azobis (2-amidinopropane) dihydrochloride-induced fluorescence decay at 1.5 uM assessed as trolox equivalents by ORAC-fluorescence assay. It is filed as functional.
Another assay has as its system Plasma. The assay is described as follows: Inhibition of lipid peroxidation in renal failured rat plasma assessed as inhibition of malondialdehyde level by TBARS assay. The class given is functional, cell-free.
Another assay deals with Kidney. Description: Inhibition of lipid peroxidation in renal failured rat kidney homogenate assessed as inhibition of malondialdehyde level by TBARS assay. It is filed as functional, tissue-based.

The structures appear in SMILES notation.

For `COc1ccc(O)c(-c2cc3ccc(O)c(OC)c3o2)c1OC` [LESPEDEZAVIRGATOL], the Activity entry was “Dose-dependent effect” in assay [1] and 763 in assay [2]. Besides, the IC50 with Plasma is 180 µM; in the assay with Kidney it was 160 µM.
As to `COc1cc(OC)c(-c2oc3cc(O)c(O)cc3c2C=O)c(OC)c1` [LESPEDEZAVIRGATAL], the Activity result in assay [1] is “Dose-dependent effect”; in assay [2], 189. The IC50 in the assay on Plasma came out at 750 µM; with Kidney, 640 µM.
Regarding `COc1c(CCC(C)(C)O)c(O)cc2oc(=O)c3c4cc(O)c(O)cc4oc3c12` [LESPEDEZACOUMESTAN], the results for the Activity entry in assay [1] and in assay [2] were “Dose-dependent effect” and 450, respectively. Moreover, the IC50 in the assay with Plasma was determined as 190 µM; with Kidney, 450 µM.
The corresponding values for `O=C1O[C@H]([C@@H](O)CO)C(O)=C1O` [ASCORBIC ACID] are “Dose-dependent effect”, 165, 5540 µM and 3050 µM.
